Source: EPA's ToxRefDB 2

Experiments:
rat [1] = details: Combined chronic toxicity/carcinogenicity, sprague dawley, Oral, Feed, dose end: 104 week, group: systemic
dog [2] = details: Subchronic oral toxicity in nonrodent, beagle, Feed, dose end: 90 day, group: systemic, systemic / clinical chemistry / albumin / albumin + systemic / clinical chemistry / calcium / calcium + systemic / clinical chemistry / …
dog [3] = details: Chronic toxicity; beagle; Oral; Feed; dose end: 52 week; group: systemic; systemic / clinical chemistry / albumin / albumin + systemic / clinical chemistry / cholesterol / cholesterol + systemic / clinical …
mouse = details: Carcinogenicity; cd1; Oral; Feed; dose end: 97 week; group: systemic; systemic / in life observation / body weight / body weight + systemic / in life observation / body weight / body weight gain + systemic / …
rat [4] = details: Multigenerational reproductive toxicity study, sprague dawley, Oral, Feed, dose end: 2 generation
rat [5] = details: Prenatal developmental toxicity study, sprague dawley, Oral, Gavage/Intubation, dose end: 15 GD
[6] = systemic / hematology / erythrocyte (rbc) count differential / erythrocyte (rbc) + systemic / hematology / hematocrit (hct) / hematocrit (…
[7] = group: offspring, systemic / in life observation / body weight / offspring (pup) weight + systemic / in life observation / body weight / offspring (pup) …
[8] = group: parental, systemic / in life observation / body weight / body weight gain
[9] = group: parental, systemic / in life observation / body weight / body weight gain + systemic / in life observation / body weight / body weight + systemic / in…
[10] = group: developmental, developmental / developmental malformation / bone / incomplete ossification
[11] = group: developmental, developmental / developmental malformation / bone / incomplete ossification + developmental / developmental malformation / bone / short …
[12] = group: maternal, systemic / in life observation / body weight / body weight gain + systemic / in life observation / clinical signs / [other] + systemic / in …

For `CN(C)C(=S)SSC(=S)N(C)C` [Thiram], the LEL (rat [1]; [6]) was 1.8 mg/kg/day, the NEL (rat [1]; [6]) was < 1.8 mg/kg/day and the LOAEL (rat [1]; systemic / in life observation / body weight / body weight gain) was 7.3 mg/kg/day. For the same compound, the NOAEL (rat [1]; systemic / in life observation / body weight / body weight gain + systemic / clinical chemistry / glucose / glucose + systemic / hematology…) was 1.5 mg/kg/day, the LEL (dog [2]) was 2.26 mg/kg/day and the LOAEL (dog [2]) was 7.01 mg/kg/day. For the same compound, the NEL (dog [2]) was < 2.26 mg/kg/day, the NOAEL (dog [2]) was 2.26 mg/kg/day and the LEL (dog [3]) was 0.84 mg/kg/day. The LOAEL (dog [3]) was 0.84 mg/kg/day, the NEL (dog [3]) was < 0.84 mg/kg/day and the NOAEL (dog [3]) was < 0.84 mg/kg/day. For the same compound, the LEL (mouse) was 24 mg/kg/day, the LOAEL (mouse) was 24 mg/kg/day and the NEL (mouse) was 2.5 mg/kg/day. For the same compound, the NOAEL (mouse) was 2.5 mg/kg/day, the LEL (rat [4]; [7]) was 4.9 mg/kg/day and the LOAEL (rat [4]; [7]) was 4.9 mg/kg/day. The NEL (rat [4]; [7]) was 1.7 mg/kg/day, the NOAEL (rat [4]; [7]) was 1.7 mg/kg/day and the LEL (rat [4]; [8]) was 4.7 mg/kg/day. It also gave an LOAEL (rat [4]; [8]) of 4.7 mg/kg/day, an NEL (rat [4]; [9]) of 1.6 mg/kg/day and an NOAEL (rat [4]; [9]) of 1.6 mg/kg/day. For the same compound, the LEL (rat [5]; [10]) was 7.5 mg/kg/day, the NEL (rat [5]; [10]) was < 7.5 mg/kg/day and the LOAEL (rat [5]; [11]) was 15 mg/kg/day. It also gave an NOAEL (rat [5]; [11]) of 7.5 mg/kg/day, an LEL (rat [5]; [12]) of 7.5 mg/kg/day and an LOAEL (rat [5]; [12]) of 7.5 mg/kg/day. The NEL (rat [5]; [12]) was < 7.5 mg/kg/day and the NOAEL (rat [5]; [12]) was < 7.5 mg/kg/day.
